Source: US20110077230A1, “COPPER ORGANOCOMPLEXES, USE THEREOF AS ANTITUMOR MEANS AND FOR PROTECTING HEALTHY TISSUE FROM IONIZING RADIATION” (CHARITE - UNIVERSITATSMEDIZIN BERLIN, priority 2008, published 2011)

Columns and labels:
neutrophils = test: Antioxidant properties: ROS formation in neutrophils; assay type: cell-based, male mice of the NMRI line; settings: triggered by PMA and fMLF, depending on the dosage
Excerpt: The complexes A and C show a pronounced effect as antioxidant in an environment having an excess of reactive oxygen species (ROS). Thus, ROS formation in neutrophils obtained from male mice of the NMRI line was triggered by two activators: phorbol 12-myristate 13-acetate (PMA) and N-formyl-methionyl-leucylphenylalanine (fMLF).

melanoma B 16 = test: B 16 melanoma in mice, intraabdominal administration; assay type: in vivo, mice of the line C 57Bl; settings: 5 mg/kg intraabdominally
Protocol: The melanoma B 16 was implanted in 20 mice of the line C 57Bl by subcutaneous injection into the right thigh. The animals were divided into four groups of five mice each. Group I received complex A at a dosage of 7 mg/kg, dissolved in DMSO, which was administered intraabdominally in a 4% suspension in physiological saline. Each administration was performed 3, 5, 7 and 9 days after trans-plantation of the tumor.
Group II was treated as group I, but using a dosage of 5 mg/kg.
Group III was treated as group I, but received 5 mg/kg of melphalan hydrochloride instead of complex A.
Group IV remained untreated.

[1] = system: colon adenocarcinoma tumor (AKATOL); test: Transplanted colon adenocarcinoma (AKATOL), peroral administration; assay type: in vivo, mice of the BALB line; settings: 10 mg/kg peroral in olive oil
Protocol: Tumor cells were transplanted in mice of the BALB line by injection into the thighs. 3 of 4 groups received the respective preparation on the peroral route 3, 4, 5, 6, 7, 8, 9 and 10 days after tumor implantation.
Group I: 10 mg/kg complex A suspended in olive oil.
Group II: 5 mg/kg complex A suspended in olive oil.
Group III: 10 mg/kg sarcolysine suspended in olive oil.
On day 21 of the experiment the animals were sacrificed and examined.

[2] = system: Ehrlich ascites adenocarcinoma; test: Ehrlich ascites adenocarcinoma in mice; assay type: in vivo, white mice
Protocol: The tumor was implanted intraabdominally in white mice of no particular race.
Group I received complex A orally as a suspension in olive oil at a dosage of 10 mg/kg 3, 4, 5, 6, 7, 8, 9 and 10 days after tumor implantation.
Group II received the same treatment, but using sarcolysine instead of complex A.
Group III received no treatment.
The animals were sacrificed and examined on the 11th day after tumor implantation.

[3] = system: human mammary gland tumor cells, T2N1M0 stage; test: In vitro effect on human mammary gland tumor cells, Experiment 1; assay type: cell-based
Protocol: (§1) Tumor cells were collected from the surgical material of female patients suffering from mammary carcinoma at two different stages. The tumor tissue was added with sterile 0.25% trypsin solution and centrifuged repeatedly in RPMI-1640 nutrient medium for 15 minutes at 1500 revolutions per minute. The amount of resulting cells was counted and the suspension of tumor cells divided into five equal groups. The RPMI-1640 nutrient medium was added with 12% fetal calf serum. The cells were incubated for 48 h at 37° C. in a 5% CO2 stream.
(§2) The preparations were dissolved in 4% DMSO and physiological saline and acidified with HCl.
(§3) Two experiments were performed using cancer cells derived from tumors of different stages. To differentiate the various stages of cancer, the TNM classification is used internationally which takes into account the tumor size (T), lymph node affection (N=nodal status) and the extent of metastasis (M).
(T2: tumor up to 5 cm; N1; metastases in 3 lymph nodes; M0: no distant metastases). A suspension including 40 million cells was added with 50 μl of each preparation.
(§4) The 5 groups with cancer cells received the following:
(§5) After subjecting the preparations to flow incubation for 60 minutes, trypan blue stained cells were produced, and dead cells and apoptosis could be determined; dead cells and apoptotic cells were determined in specific units of time and morphological findings.

[4] = system: human mammary gland tumor cells, T4N2M0 stage; test: In vitro effect on human mammary gland tumor cells, Experiment 2; assay type: cell-based
Protocol: as §1, §2, §3
(T3: large tumor spreading into the tissue surrounding the breast; N2: metastases up to 9 axillary lymph nodes, M0: no distant metastases). A suspension including 40 million cells was added with 50 μl of each preparation.
as §4, §5

| Structure (SMILES) | formation of ROS in neutrophils (neutrophils) | Apoptotic index AI (melanoma B 16) | Bone marrow index MI BM (melanoma B 16) | Inhibition of tumor growth, mass percent (melanoma B 16) | Inhibition of tumor growth, volume percent (melanoma B 16) | Mitotic index of tumor cells MI (melanoma B 16) | Average volume of tumor (melanoma B 16; days 3, 5, 7, 9) [cm^3] | Average weight of tumor (melanoma B 16; days 3, 5, 7, 9) [mg] | % inhibition [1] [%] | Average weight of tumor ([1]; days 3 to 10, day 21) [g] | % inhibition ([2]; 10 mg/kg orally) [%] | Average MI of bone marrow ([2]; 10 mg/kg orally) | Average MI of tumor cells ([2]; 10 mg/kg orally) | Average number of tumor cells ([2]; 10 mg/kg orally in olive oil, days 3 to 10, day 11) | Living cells, % ([3]; Experiment 1, T2N1M0) [%] | Dead cells, % ([3]; Experiment 1, T2N1M0, 40 million cells, 50 μl of preparation) [%] | Living cells, % ([4]; Experiment 2, T4N2M0) [%] | Dead cells, % ([4]; Experiment 2, T4N2M0, 40 million cells, 50 μl of preparation) [%] |
| --- | --- | --- | --- | --- | --- | --- | --- | --- | --- | --- | --- | --- | --- | --- | --- | --- | --- | --- |
| O=c1[nH]c(=O)n(C2CCCO2)cc1F (stereo not shown) [tegafur, N-(2-furanidil)-5-fluorouracil, reference compound] | hardly achieved |  |  |  |  |  |  |  |  |  |  |  |  |  |  |  |  |  |
| NC(Cc1ccc(N(CCCl)CCCl)cc1)C(=O)O (racemic) [sarcolysine, 4-[bis(2-chloroethyl)amino]-D,L-phenylalanine, reference compound] | hardly achieved | 3.07 ‰ | 1.88 ‰ | mass percent 62.87% | volume percent 35.78% | 2.43 ‰ | 1.4 | 482.6 | 43 | 1.85 | 47.4 | 0.52 ± 0.26 ‰ | 2.0 ± 1.87 ‰ | 77 10^6 | 54.0 ± 2.22 | 46.0 ± 2.22 | 51.0 ± 2.23 | 49.0 ± 2.23 |
